Measured values reported in patent US11473089B2, “Aptamer for ADAMTS5 and use for aptamer for ADAMTS5” (RIBOMIC INC., priority 2017, dated 2022).
Read-outs that look alike come from different tables or passages of the source. Blank lines part the entries; values can stand above or below the compound they belong to.

Assays:
ADAMTS5 [1] = biological target: T1, ADAMTS5 (Homo sapiens, UniProt Q9UNA0); assay: binding activity to ADAMTS5 by surface plasmon resonance (Biacore T100); conditions: Table 10
T1 construct: purchased R&D systems
T1 sequence (Q9UNA0 262-930): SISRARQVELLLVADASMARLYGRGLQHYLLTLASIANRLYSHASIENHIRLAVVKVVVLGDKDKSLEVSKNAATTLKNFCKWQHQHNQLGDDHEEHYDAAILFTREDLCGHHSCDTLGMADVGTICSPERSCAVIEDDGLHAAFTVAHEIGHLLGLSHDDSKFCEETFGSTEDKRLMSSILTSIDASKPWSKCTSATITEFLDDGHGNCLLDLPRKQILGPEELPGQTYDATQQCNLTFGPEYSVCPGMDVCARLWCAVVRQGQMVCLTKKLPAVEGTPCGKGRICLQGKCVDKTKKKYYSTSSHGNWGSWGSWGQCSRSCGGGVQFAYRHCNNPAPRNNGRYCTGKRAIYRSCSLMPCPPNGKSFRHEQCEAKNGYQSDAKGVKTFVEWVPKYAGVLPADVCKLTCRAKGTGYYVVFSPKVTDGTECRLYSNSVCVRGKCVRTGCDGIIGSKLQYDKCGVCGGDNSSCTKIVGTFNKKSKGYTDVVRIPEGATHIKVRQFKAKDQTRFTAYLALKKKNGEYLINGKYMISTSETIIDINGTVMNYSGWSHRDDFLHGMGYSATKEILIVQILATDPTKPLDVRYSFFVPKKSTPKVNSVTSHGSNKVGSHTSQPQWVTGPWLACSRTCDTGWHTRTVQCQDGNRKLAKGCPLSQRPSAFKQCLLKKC
Procedure: The binding activity of aptamers having the nucleotide sequences shown in SEQ ID NOs: 1 and 2 to ADAMTS5 was evaluated by the surface plasmon resonance method. Biacore T100 manufactured by GE Healthcare was used for the measurement. The SA chip was used as the sensor chip, which had streptavidin immobilized thereon. About 800 RU of a 16-nucleotide Poly dT with biotin at the 5′-terminal was bound on the chip. […] ADAMTS5 for analyte was prepared at 0.1 μM, and injected at a flow rate of 30 μL/min for 60 sec. As the running buffer, solution C was used. The solution C is a mixed solution of 300 mM sodium chloride, 5.4 mM potassium chloride, 1.8 mM calcium chloride, 0.8 mM magnesium chloride, 20 mM tris (pH 7.6), and 0.05% Tween20.
SEQ ID NO: 2 has a sequence with one base deletion from the continuous 4 G bases in the consensus sequence, and it was shown from the measurement results of the binding activity that the continuous 4 G bases in the consensus sequence are important for the activity of aptamers. Sensorgram showing the binding of an aptamer having the nucleotide sequence shown in SEQ ID NO: 1 to ADAMTS5 is presented in FIG. 2. In Table 1, “++” indicates those with the proportion of ADAMTS5 binding amount (RU value) to the amount of aptamer immobilized on the SA chip (RU value) of not less than 40%, “+” indicates those with the proportion of not less than 10% and less than 40%, and “−” indicates those with the proportion of less than 10%.
The binding activity and enzyme inhibitory activity of aptamers having nucleotide sequences shown in SEQ ID NOs: 16-25 to ADAMTS5 were measured. The binding activity was evaluated by the surface plasmon resonance method. For the measurement, a method similar to that in Example 1 was used. The enzyme inhibitory activity was measured by a method similar to that in Example 1. […] The negative control nucleic acid refers to the nucleic acid pool used in the first round of the SELEX method. The “++” indicates those with the proportion of ADAMTS5 binding amount (RU value) to the amount of aptamer immobilized on the SA chip (RU value) of not less than 40%, and “+” indicates those with the proportion of less than 40%. […] “n.d.” means not determined.
The binding activity of the nucleic acids shown in SEQ ID NOs: 30-45 to ADAMTS5 was measured. The binding activity was evaluated by the surface plasmon resonance method. In the Table, “++” indicates those with the proportion of ADAMTS5 binding amount (RU value) to the amount of aptamer immobilized on the SA chip (RU value) of not less than 40%, “+” indicates those with the proportion of not less than 10% and less than 40%, and “−” indicates those with the proportion of less than 10%.

ADAMTS5 [2] = biological target: T1, ADAMTS5; assay: ADAMTS5 enzyme inhibition, aggrecan G1-IGD-G2 cleavage, SDS-PAGE detection (evaluation method 1); format: biochemical; conditions: for % inhibitory activity: Table 3, final concentration of the nucleic acid 30 nM; for Inhibitory activity against ADAMTS5: Table 4; for inhibition rate % (10 nM aptamer): Table 5; for inhibitory activity against ADAMTS5 (in words, compared with parent sequence): enzyme assay as in Example 1
Procedure: Whether an aptamer having the nucleotide sequence shown in SEQ ID NO: 1 inhibits the enzyme activity of ADAMTS5 was evaluated by the following method. As a substrate of ADAMTS5, the G1-IGD-G2 domain of aggrecan (manufactured by R&D systems) was used. ADAMTS5 specifically cleaves in between the 392nd glutamic acid and the 393rd alanine in the G1-IGD-G2 domain and produces two fragments. These fragments have faster electrophoretic mobility than uncleaved G1-IGD-G2. Thus, the enzyme activity of ADAMTS5 can be measured by quantifying the band intensity of G1-IGD-G2 by SDS-PAGE electrophoresis. The assay was performed in a solution A buffer with a reaction mixture volume of 10 μL. First, a mixture (10 μL) of a nucleic acid and ADAMTS5 was prepared and incubated at 25° C. for 15 min. To a substrate solution (5 μL) diluted with solution A was added a mixture (5 μL) of the nucleic acid and ADAMTS5 to start the enzyme reaction. The final concentration of ADAMTS5 in the reaction solution was 5 nM, and the final substrate concentration was 50 μg/mL. The reaction solution was incubated at 37° C. for 2 hr, 2 μL of solution D was added, and the mixture was heated at 95° C. for 2 min to stop the enzyme reaction of ADAMTS5. Solution D contains 0.25 M tris (pH 6.8), 10% SDS, 50% glycerol, 0.25% bromo phenolblue, and 20% 2-mercaptoethanol. The heat-treated reaction solution was electrophoresed by 7.5% SDS-PAGE and stained with SYPRO Orange (manufactured by Sigma-Aldrich). The staining was performed according to the manual of Sigma-Aldrich and detected using STORM840 manufactured by GE Healthcare. For analytical curves, uncleaved substrates 1000 ng, 400 ng, 160 ng, 64 ng, 25.6 ng, 10.24 ng, and 4.1 ng were electrophoresed, and staining and detection were performed in the same manner. The amount of uncleaved substrate in each reaction solution was quantified from the band intensity and the standard curve. The substrate cleavage efficiency of ADAMTS5 under these reaction conditions was 80-100%. The inhibition rate of the test substance was calculated using the following equation. inhibition rate (%)=(Sapt−SE)/(S0−SE)×100 wherein Sapt is the amount of an uncleaved substrate with the addition of a test substance, SE is the residual amount of an uncleaved substrate with the addition of ADAMTS5, and S0 is the residual amount of an uncleaved substrate without the addition of ADAMTS5.
The concentration of an inhibitor necessary for inhibiting 50% of the enzyme activity (IC50) was determined. IC50 is a mean of four measurements.

[3] = Table 9, electrophoresis detection, 10 nM nucleic acid

Compound: 41 (GGGUAUUGGGGCCUCCACAUGGAUACAUUGGACUAAACCAACUCGA; aptamer; 2'-fluoro at CU, RNA at AG, backbone not given here) [compound 41]
binding activity (ADAMTS5 [1]): ++ (proportion of ADAMTS5 binding amount (RU value) to the amount of aptamer immobilized on the SA chip (RU value) of not less than 40%)

Compound: 43 (GGGUAUUGGGGCCUCCACAGAAAAUUCUUGGACUAAACCAACUCGA; aptamer; 2'-fluoro at CU, RNA at AG, backbone not given here) [compound 43]
binding activity (ADAMTS5 [1]): ++ (proportion of ADAMTS5 binding amount (RU value) to the amount of aptamer immobilized on the SA chip (RU value) of not less than 40%)

Compound: 32 (GGGUAUUGGGGCCUCCACAGAAAAAUCUUGGACUAAACCAAUCUCGA; aptamer; 2'-fluoro at CU, RNA at AG, backbone not given here) [compound 32]
binding activity (ADAMTS5 [1]): ++ (proportion of ADAMTS5 binding amount (RU value) to the amount of aptamer immobilized on the SA chip (RU value) of not less than 40%)

Compound: 7 (GGCUUGGGGCCUCCACAGCUGCUCAGCUUGGACUAACCAAGCC; 2'-fluoro at CU, RNA at AG, backbone not given here) [compound 7]
% inhibitory activity (ADAMTS5 [2]): −2.3%

Compound: 3 (GGAUUGGGGCCUCCACAGCUGCUCAGCUUGGACUAAACCAAUCC; 2'-fluoro at CU, RNA at AG, backbone not given here) [compound 3]
% inhibitory activity (ADAMTS5 [2]): 36.4% | Inhibitory activity against ADAMTS5 (ADAMTS5 [2]; nucleic acid concentration 10 nM): 33.9% | Inhibitory activity against ADAMTS5 (ADAMTS5 [2]; nucleic acid concentration 30 nM): 58.4%

Compound: 4 (GGCUUGGGGCCUCCACAGCUGCUCAGCUUGGACUAAACCAAGCC; 2'-fluoro at CU, RNA at AG, backbone not given here) [compound 4]
% inhibitory activity (ADAMTS5 [2]): 23%

IC50 (ADAMTS5 [2]; positive control, read-out: IC50 value): 90500 nM
Compound: Cn1nc(C(F)(F)F)c(/C=C2\SC(=S)NC2=O)c1SCc1ccc(Cl)cc1 [reference compound]

Compound: 28 (CGUAGGGGCCUCCACAGCGUAAGCUUGGACUUAAACCACG; aptamer; 2'-O-methyl modifications copied from another aptamer, pattern not given here, some with 3' inverted dT) [compound 28]
IC50 (ADAMTS5 [2]; Table 8, read-out: IC50): 3.4 nM | inhibitory activity (%) evaluation method 1 (ADAMTS5 [2]; [3]): 81%

Compound: 10 (AUUGGGGCCUCCACAGCUGCUCAGCUUGGACUAAACCAAU; 2'-F and 2'-O-methyl modifications at positions not given here) [compound 10]
inhibition rate % (10 nM aptamer) (ADAMTS5 [2]; 10 nM aptamer): 65% | inhibitory activity (%) evaluation method 1 (ADAMTS5 [2]; Table 6, 10 nM aptamer): 65%

Compound: 27 (UAUAGGGGCCUCCACAGCGUAAGCUUGGACUUAAACCAUA; aptamer; 2'-O-methyl modifications copied from another aptamer, pattern not given here, some with 3' inverted dT) [compound 27]
IC50 (ADAMTS5 [2]; Table 8, read-out: IC50): 5.9 nM

Compound: 14 (AUUGGGGCCUCCACAGCUUCGGCUUGGACUAAACCAAU; listed as RNA, chemistry not given here) [compound 14]
inhibitory activity (%) evaluation method 1 (ADAMTS5 [2]; Table 6, 10 nM aptamer): 60.5% | inhibitory activity against ADAMTS5 (in words, compared with parent sequence) (ADAMTS5 [2]): does not affect the inhibitory activity

Compound: 5 (GGCUUGGGGCCUCCACAGCGCUCGCUUGGACUAAACCAAGCC; 2'-fluoro at CU, RNA at AG, backbone not given here) [compound 5]
% inhibitory activity (ADAMTS5 [2]): 27%

Compound: 26 (GGGUAUAGGGGCCUCCACAGCGUAAGCUUGGACUUAAACCAUACCC; listed as RNA, chemistry not given here) [compound 26]
inhibitory activity % 30 nM aptamer (ADAMTS5 [2]; Table 8, 30 nM aptamer): 63.5%

Compound: 12 (UUGGGGCCUCCACAGCGCUCGCUUGGACUAAACCAA; chemically modified, pattern not given here) [compound 12]
inhibition rate % (10 nM aptamer) (ADAMTS5 [2]; 10 nM aptamer): 71.1%

Compound: 11 (AUUGGGGCCUCCACAGCGCUCGCUUGGACUAAACCAAU; 2'-F and 2'-O-methyl modifications at positions not given here) [compound 11]
inhibition rate % (10 nM aptamer) (ADAMTS5 [2]; 10 nM aptamer): 59.8% | inhibitory activity (%) evaluation method 1 (ADAMTS5 [2]; Table 6, 10 nM aptamer): 59.8%

Compound: 29 (CGUAGGGGCCUCCACAGCAUUCGCUUGGACACAAACCACG; aptamer; 2'-O-methyl modifications copied from another aptamer, pattern not given here, some with 3' inverted dT) [compound 29]
inhibitory activity % 10 nM aptamer (ADAMTS5 [2]; Table 8, 10 nM aptamer): 84% | inhibitory activity (%) evaluation method 1 (ADAMTS5 [2]; [3]): 84%

Compound: 13 (GCUGGGGCCUCCACAGCGCUCGCUUGGACUAAACCAGC; chemically modified, pattern not given here) [compound 13]
inhibitory activity (%) evaluation method 1 (ADAMTS5 [2]; Table 6, 10 nM aptamer): 58.4% | inhibitory activity against ADAMTS5 (in words, compared with parent sequence) (ADAMTS5 [2]): does not affect the inhibitory activity

Compound: 8 (GGCUUGGGGCCUCACAGCUGCUCAGCUUGACUAAACCAAGCC; 2'-fluoro at CU, RNA at AG, backbone not given here) [compound 8]
% inhibitory activity (ADAMTS5 [2]): −8.6%

Compound: 9 (GGAUUGGGGCCUCCACAGCGUCGCUUGGACUAAACCAAUCC; 2'-fluoro at CU, RNA at AG, backbone not given here) [compound 9]
% inhibitory activity (ADAMTS5 [2]): 5.9%

Compound: 6 (GGCUUGGGGCCUCCACAGCUGUCAGCUUGGACUAAACCAAGCC; 2'-fluoro at CU, RNA at AG, backbone not given here) [compound 6]
% inhibitory activity (ADAMTS5 [2]): 33.7%
